This note sets out measurements from patent US20220370440A1 (Lead Discovery Center GmbH, priority 2018, published 2022).

Each structure is given as a SMILES string.

Series [1] deals with T1, HER2 INS YVMA (Homo sapiens, UniProt P04626, INS775YVMA).
T1 construct: purchased DPF
In words: Lance Kinase Activity Assay, HER2 INS YVMA (Her2 Exon 20 INSYVMA Lance). As to conditions: biochemical Lance assay. It counts as biochemical. An outline of the steps: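 Kinase phosphorylates a ULight-labelled peptide substrate; Eu anti-phospho antibody gives TR-FRET (ex 340 nm, em 665/615 nm). Compounds in 1:3 serial dilution over 8 steps, reaction started with ATP, 1 h at room temperature, stopped with EDTA-containing detection mix for 1 h. IC50 from sigmoidal dose-response curves.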

The target in series [2] is Her2 Exon 20 INSYVMA Ba/F3 (Homo sapiens, UniProt P04626, DUP772-775, cells depend on it). In words: Her2 Exon 20 INSYVMA Ba/F3 CellTiter-Glo. It counts as cell-based. As to conditions: CellTiter-Glo, 72 h, read-out: Her2 Exon 20 INSYVMA Ba/F3 CTG IC50. An outline of the steps:
(§1)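 Seed Ba/F3 cells; 24 h, 37 °C/5% CO2. Add cpds in DMSO, multiple concs; 72 h. CellTiter-Glo, 10 min RT, luminescence. IC50 by curve fit. Z′ ≥0.5 from DMSO vs 10 μM staurosporine.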

Series [3] addresses EGFR Exon 20 INSNPH Ba/F3 (Homo sapiens, UniProt P00533, DUP771-773, cells depend on it). In words: EGFR Exon 20 INSNPH Ba/F3 CellTiter-Glo. Type of series: cell-based. As to conditions: CellTiter-Glo, 72 h, read-out: EGFR Exon 20 INSNPH Ba/F3 CTG IC50. The method, boiled down:
as §1
In general terms: In ATP-based viability assays light output follows the ATP content of the culture.

Series [4] deals with EGFR T790ML858R (Homo sapiens, UniProt P00533, L858R/T790M). In words: EGFR T790ML858R Lance assay. It counts as biochemical. Here is the method:
(§2) Inhibition is indicated as […] [nM] (“−”=not measured). Compounds having an activity designated as “A” provided an IC50≤100 nM; compounds having an activity designated as “B” provided an 100 nM<IC50≤500 nM; compounds having an activity designated as “C” provided an 500 nM<IC50≤1000 nM; compounds having an activity designated as “D” provided an 1000 nM<IC50≤100000 nM; and compounds having an activity designated as “E” provided an IC50>10000 nM.

The target of series [5] is EGFR wt (Homo sapiens, UniProt P00533). In words: EGFR wt Lance assay. It counts as biochemical. Here is the method:
as §2

Series [6] has as its system H1975. In words: H1975 CellTiter-Glo. It counts as cell-based. As to conditions: Homo sapiens, NCI-H1975; 72 h compound incubation; read-out: H1975 CTG IC50. An outline of the steps: (§3)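 Antiproliferative IC50 values come from a 72 h treatment of cultured cells, measured by CellTiter-Glo ATP luminescence. Only runs with a Z′-factor of at least 0.5, calculated from 16 vehicle and 16 Staurosporine (10 μM) control wells, are reported.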

Series [7] relates to A431. In words: A431 CellTiter-Glo. It counts as cell-based. As to conditions: Homo sapiens, A-431; 72 h compound incubation; read-out: A431 CTG IC50. An outline of the steps: as §3
Series [8] in a line: Metabolic stability in mouse liver microsomes without cofactor NADPH. It counts as in vitro ADME. As to conditions: 3 μM test compound, mouse liver microsomes, without NADPH, 50 min, 37° C., LC-MS/MS. The method, boiled down: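 Test compound (3 μM) was incubated with mouse liver microsomes without NADPH at 37° C. Depletion was followed by LC-MS/MS over time up to 50 min.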
On the technique in general: Microsomes from liver hold many membrane-bound enzymes, among them those of drug oxidation.

The term IC50 denotes the point on the concentration scale where inhibition reaches its midpoint.

Her2 Exon 20 INSYVMA Ba/F3, sequence (P04626 with tags, fused parts or gaps DUP772-775): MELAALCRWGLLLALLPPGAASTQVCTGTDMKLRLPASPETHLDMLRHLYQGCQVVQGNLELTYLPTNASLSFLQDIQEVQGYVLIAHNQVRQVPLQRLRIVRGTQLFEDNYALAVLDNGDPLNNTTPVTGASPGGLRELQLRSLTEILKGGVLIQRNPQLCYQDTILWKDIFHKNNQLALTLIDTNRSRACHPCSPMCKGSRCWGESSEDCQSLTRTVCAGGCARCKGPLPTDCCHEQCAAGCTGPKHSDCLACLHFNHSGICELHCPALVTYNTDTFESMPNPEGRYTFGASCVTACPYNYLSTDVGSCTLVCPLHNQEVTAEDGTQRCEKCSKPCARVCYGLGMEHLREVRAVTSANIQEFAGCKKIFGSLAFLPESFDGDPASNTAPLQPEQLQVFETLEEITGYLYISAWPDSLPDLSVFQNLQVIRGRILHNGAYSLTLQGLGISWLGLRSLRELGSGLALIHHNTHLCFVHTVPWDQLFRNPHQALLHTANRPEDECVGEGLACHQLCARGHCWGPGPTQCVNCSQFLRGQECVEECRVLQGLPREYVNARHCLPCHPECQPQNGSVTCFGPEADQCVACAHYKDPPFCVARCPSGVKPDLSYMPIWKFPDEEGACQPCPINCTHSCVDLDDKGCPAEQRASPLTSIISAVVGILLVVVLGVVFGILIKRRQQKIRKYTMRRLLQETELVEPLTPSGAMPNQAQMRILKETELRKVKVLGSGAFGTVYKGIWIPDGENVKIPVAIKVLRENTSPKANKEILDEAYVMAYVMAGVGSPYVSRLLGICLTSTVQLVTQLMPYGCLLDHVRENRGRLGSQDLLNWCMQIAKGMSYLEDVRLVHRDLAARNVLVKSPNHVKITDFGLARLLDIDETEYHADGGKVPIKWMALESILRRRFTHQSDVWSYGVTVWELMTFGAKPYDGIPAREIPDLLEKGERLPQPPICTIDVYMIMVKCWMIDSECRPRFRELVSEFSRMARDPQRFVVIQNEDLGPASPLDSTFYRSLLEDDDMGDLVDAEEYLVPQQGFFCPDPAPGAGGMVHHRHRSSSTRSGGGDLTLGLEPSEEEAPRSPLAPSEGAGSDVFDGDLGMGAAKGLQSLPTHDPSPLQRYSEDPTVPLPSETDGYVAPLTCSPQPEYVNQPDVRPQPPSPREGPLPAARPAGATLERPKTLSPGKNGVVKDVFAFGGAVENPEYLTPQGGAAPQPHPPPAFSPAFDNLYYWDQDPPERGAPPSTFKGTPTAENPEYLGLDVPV
T1 sequence (P04626 with tags, fused parts or gaps INS775YVMA): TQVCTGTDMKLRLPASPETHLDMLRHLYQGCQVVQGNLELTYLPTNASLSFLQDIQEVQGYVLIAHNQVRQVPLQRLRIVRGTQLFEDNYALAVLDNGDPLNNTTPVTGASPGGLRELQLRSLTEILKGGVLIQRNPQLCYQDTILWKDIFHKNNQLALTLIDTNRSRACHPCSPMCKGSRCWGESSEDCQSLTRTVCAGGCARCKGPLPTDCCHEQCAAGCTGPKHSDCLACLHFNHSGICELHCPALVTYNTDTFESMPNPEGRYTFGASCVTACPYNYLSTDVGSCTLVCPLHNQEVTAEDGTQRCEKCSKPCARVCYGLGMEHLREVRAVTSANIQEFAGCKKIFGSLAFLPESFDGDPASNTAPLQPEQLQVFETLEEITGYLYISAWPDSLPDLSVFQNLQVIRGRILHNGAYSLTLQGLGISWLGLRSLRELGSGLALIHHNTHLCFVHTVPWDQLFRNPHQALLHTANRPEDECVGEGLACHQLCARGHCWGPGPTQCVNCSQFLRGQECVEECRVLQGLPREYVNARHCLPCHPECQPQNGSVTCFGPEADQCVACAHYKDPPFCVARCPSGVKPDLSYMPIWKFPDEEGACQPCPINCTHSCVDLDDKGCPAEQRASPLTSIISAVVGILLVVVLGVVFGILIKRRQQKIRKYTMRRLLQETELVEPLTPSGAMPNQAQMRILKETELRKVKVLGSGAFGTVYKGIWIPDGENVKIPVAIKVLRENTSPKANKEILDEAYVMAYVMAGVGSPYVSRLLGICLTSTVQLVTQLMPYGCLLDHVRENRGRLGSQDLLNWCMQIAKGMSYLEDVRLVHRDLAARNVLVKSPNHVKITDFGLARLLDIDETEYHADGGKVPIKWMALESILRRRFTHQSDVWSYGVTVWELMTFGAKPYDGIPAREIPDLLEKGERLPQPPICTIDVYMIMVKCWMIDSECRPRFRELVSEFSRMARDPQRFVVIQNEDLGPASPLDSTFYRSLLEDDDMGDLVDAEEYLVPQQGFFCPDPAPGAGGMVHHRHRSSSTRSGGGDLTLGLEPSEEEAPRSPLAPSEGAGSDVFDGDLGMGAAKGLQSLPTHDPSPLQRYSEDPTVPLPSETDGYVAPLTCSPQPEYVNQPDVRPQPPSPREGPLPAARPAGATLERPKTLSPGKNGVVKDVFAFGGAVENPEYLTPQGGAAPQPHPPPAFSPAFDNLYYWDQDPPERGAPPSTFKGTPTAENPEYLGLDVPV
EGFR wt, sequence (P00533 25-1210): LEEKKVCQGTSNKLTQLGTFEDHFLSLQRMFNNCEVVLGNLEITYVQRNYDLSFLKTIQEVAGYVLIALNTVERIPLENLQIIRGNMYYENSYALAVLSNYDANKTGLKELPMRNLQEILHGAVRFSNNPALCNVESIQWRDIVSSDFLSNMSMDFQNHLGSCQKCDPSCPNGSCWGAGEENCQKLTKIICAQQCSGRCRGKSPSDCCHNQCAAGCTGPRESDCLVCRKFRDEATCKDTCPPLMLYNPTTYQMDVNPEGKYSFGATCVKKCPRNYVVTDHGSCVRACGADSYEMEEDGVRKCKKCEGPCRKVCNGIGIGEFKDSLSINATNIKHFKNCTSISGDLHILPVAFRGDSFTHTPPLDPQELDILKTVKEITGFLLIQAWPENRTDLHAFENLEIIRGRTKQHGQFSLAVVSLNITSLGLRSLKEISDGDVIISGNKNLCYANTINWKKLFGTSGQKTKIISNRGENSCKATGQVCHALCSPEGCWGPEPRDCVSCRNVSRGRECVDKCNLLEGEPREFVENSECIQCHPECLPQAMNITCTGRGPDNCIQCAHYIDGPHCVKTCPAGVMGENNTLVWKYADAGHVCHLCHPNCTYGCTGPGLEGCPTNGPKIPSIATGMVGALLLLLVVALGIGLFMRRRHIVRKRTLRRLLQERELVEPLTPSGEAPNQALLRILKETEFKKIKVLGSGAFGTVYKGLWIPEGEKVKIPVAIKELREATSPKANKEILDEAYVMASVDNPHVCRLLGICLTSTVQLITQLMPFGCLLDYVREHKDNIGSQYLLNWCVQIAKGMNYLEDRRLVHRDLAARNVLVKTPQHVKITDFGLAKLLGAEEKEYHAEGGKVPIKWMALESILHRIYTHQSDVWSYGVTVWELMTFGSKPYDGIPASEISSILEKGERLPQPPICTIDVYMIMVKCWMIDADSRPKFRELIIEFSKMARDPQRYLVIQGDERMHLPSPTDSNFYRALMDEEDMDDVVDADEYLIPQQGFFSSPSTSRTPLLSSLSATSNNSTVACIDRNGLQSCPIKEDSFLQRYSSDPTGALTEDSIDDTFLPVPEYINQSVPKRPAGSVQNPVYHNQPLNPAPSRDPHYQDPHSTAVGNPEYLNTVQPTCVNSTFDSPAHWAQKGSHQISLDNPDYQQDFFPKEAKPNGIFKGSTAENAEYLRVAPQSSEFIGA
EGFR Exon 20 INSNPH Ba/F3, sequence (P00533 with tags, fused parts or gaps DUP771-773): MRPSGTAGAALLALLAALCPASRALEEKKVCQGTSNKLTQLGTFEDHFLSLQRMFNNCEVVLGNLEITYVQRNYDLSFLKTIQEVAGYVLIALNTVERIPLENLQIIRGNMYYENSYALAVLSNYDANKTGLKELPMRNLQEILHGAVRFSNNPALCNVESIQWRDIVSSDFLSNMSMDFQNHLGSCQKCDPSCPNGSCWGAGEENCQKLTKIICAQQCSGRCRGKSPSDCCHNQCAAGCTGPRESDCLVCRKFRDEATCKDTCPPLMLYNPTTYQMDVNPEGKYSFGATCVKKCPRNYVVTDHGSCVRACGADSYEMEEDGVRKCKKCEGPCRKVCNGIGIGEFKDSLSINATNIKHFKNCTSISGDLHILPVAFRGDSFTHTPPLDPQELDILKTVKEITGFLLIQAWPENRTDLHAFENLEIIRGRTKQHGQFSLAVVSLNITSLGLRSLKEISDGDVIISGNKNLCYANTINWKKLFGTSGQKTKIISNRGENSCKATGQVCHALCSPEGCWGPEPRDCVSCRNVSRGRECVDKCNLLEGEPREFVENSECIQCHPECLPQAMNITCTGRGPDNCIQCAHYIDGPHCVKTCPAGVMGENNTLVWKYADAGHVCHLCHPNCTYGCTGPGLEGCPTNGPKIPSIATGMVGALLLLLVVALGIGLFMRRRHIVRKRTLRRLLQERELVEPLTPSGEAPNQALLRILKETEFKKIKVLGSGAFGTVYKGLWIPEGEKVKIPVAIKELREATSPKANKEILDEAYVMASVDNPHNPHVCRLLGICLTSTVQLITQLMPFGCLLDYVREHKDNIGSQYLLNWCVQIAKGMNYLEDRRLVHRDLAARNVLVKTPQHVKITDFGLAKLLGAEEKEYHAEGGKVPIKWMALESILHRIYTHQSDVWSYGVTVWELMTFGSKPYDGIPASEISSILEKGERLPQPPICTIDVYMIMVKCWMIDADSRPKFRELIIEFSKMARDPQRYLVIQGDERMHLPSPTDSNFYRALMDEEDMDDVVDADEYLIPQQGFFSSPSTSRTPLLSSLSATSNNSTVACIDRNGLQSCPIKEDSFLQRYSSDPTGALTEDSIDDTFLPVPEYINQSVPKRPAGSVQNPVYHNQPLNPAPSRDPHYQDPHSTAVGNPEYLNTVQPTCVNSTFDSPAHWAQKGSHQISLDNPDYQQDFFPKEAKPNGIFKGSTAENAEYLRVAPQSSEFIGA

Consider `C=CC(=O)N1CCCc2ccc(-c3c(-c4ccc(N5CCN(C(C)C)CC5)cc4)[nH]c4nccc(Cl)c34)cc21` [Example 91, 1-(7-(4-chloro-2-(4-(4-isopropylpiperazin-1-yl)phenyl)-1H-pyrrolo[2,3-b]pyridin-3-yl)-3,4-dihydroquinolin-1(2H)-yl)prop-2-en-1-one], for which the IC50 in series [1] is ≤ 100 nM; in series [4] it was ≤ 100 nM; in series [5], ≤ 100 nM; in series [6], 100 to 500 nM; in series [7], 1000 to 100000 nM. Besides, the GI50 in series [2] and in series [3] was 500 to 1000 nM throughout. Moreover, in series [8], the “Stability in presence of mouse liver microsomes without cofactor NADPH [% remaining after 50 min]” value is listed as >99 % remaining after 50 min.
As to `C=CC(=O)Nc1cc(-c2c(-c3ccc(N(C)CCN(C)C)cc3)[nH]c3ncc(C(=O)OC(C)C)cc23)ccc1C` [Example 154, isopropyl 3-(3-acrylamido-4-methylphenyl)-2-(4-((2-(dimethylamino)ethyl)(methyl)amino)phenyl)-1H-pyrrolo[2,3-b]pyridine-5-carboxylate 2,2,2-trifluoroacetate], the IC50 in series [1] is ≤ 100 nM; in series [4] it was ≤ 100 nM; in series [5] it was ≤ 100 nM; in series [6], 100 to 500 nM; in series [7], 1000 to 100000 nM. In addition, the GI50 in series [2] and in series [3] was 100 to 500 nM throughout. Besides, in series [8], the “Stability in presence of mouse liver microsomes without cofactor NADPH [% remaining after 50 min]” value is >99 % remaining after 50 min.
For `C=CC(=O)N1CCc2ccc(-c3c(-c4ccc(CN5CCN(C)CC5)cc4)[nH]c4nccc(OCC)c34)cc21` [Example 108, 1-(6-(4-ethoxy-2-(4-((4-methylpiperazin-1-yl)methyl)phenyl)-1H-pyrrolo[2,3-b]pyridin-3-yl)indolin-1-yl)prop-2-en-1-one], the IC50 was ≤ 100 nM in series [1]; ≤ 100 nM in series [4]; ≤ 100 nM in series [5]; ≤ 100 nM in series [6]; 500 to 1000 nM in series [7]. Moreover, the GI50 in series [2] and in series [3] was 100 to 500 nM each time. For the same compound, the “Stability in presence of mouse liver microsomes without cofactor NADPH [% remaining after 50 min]” value in series [8] is on record as 86 % remaining after 50 min.
Take `C=CC(=O)N1CCOc2ccc(-c3c(-c4ccc(CN5CCN(C)CC5)cc4)[nH]c4nccc(Cl)c34)cc21` [Example 100, 1-(6-(4-chloro-2-(4-((4-methylpiperazin-1-yl)methyl)phenyl)-1H-pyrrolo[2,3-b]pyridin-3-yl)-2H-benzo[b][1,4]oxazin-4(3H)-yl)prop-2-en-1-one]: the IC50 is ≤ 100 nM in series [1]; ≤ 100 nM in series [4]; ≤ 100 nM in series [5]; 100 to 500 nM in series [6]; 1000 to 100000 nM in series [7]. Moreover, the GI50 in series [2] was in the range of 100 to 500 nM; in series [3], 500 to 1000 nM. Also, the “Stability in presence of mouse liver microsomes without cofactor NADPH [% remaining after 50 min]” value in series [8] is listed as >99 % remaining after 50 min.
As to `C=CC(=O)N1CCc2ccc(-c3c(-c4ccc(N5CCN(C)CC5)cc4)[nH]c4nccc(OC)c34)cc21` [Example 110, 1-(6-(4-methoxy-2-(4-(4-methylpiperazin-1-yl)phenyl)-1H-pyrrolo[2,3-b]pyridin-3-yl)indolin-1-yl)prop-2-en-1-one], the IC50 in series [1] is ≤ 100 nM; in series [4] it was ≤ 100 nM; in series [5], ≤ 100 nM; in series [6], ≤ 100 nM; in series [7] it was 500 to 1000 nM. For the same compound, the GI50 in series [2] and in series [3] was 100 to 500 nM in each case. The “Stability in presence of mouse liver microsomes without cofactor NADPH [% remaining after 50 min]” value in series [8] was determined as 93 % remaining after 50 min.
For the compound `C=CC(=O)Nc1cc(-c2c(-c3ccc(N4CCN(C)CC4)cc3)[nH]c3ncc(Cl)c(C)c23)ccc1C` [Example 155], the IC50 in series [1] is ≤ 100 nM; in series [4], ≤ 100 nM; in series [5], ≤ 100 nM; in series [6], ≤ 100 nM; in series [7], 1000 to 100000 nM. Besides, the GI50 in series [2] was 500 to 1000 nM; in series [3] it was 100 to 500 nM. Moreover, the “Stability in presence of mouse liver microsomes without cofactor NADPH [% remaining after 50 min]” value in series [8] is recorded as >99 % remaining after 50 min.
Take `C=CC(=O)Nc1cc(-c2c(-c3ccc(C4CCN(C)CC4)cc3)[nH]c3ncc(C(=O)OC(C)C)cc23)cc(F)c1C` [Example 179, isopropyl 3-(3-acrylamido-5-fluoro-4-methylphenyl)-2-(4-(1-methylpiperidin-4-yl)phenyl)-1H-pyrrolo[2,3-b]pyridine-5-carboxylate]: the IC50 is ≤ 100 nM in series [1]; ≤ 100 nM in series [4]; ≤ 100 nM in series [5]; 100 to 500 nM in series [6]; 1000 to 100000 nM in series [7]. Further, the GI50 in series [2] and in series [3] was 100 to 500 nM in each case. Moreover, the “Stability in presence of mouse liver microsomes without cofactor NADPH [% remaining after 50 min]” value in series [8] is reported as >99 % remaining after 50 min.
`C=CC(=O)N1CCc2ccc(-c3c(-c4ccc(N5CCN(CC)CC5)cc4)[nH]c4nccc(Cl)c34)cc21` [Example 63, 1-(6-(4-chloro-2-(4-(4-ethylpiperazin-1-yl)phenyl)-1H-pyrrolo[2,3-b]pyridin-3-yl)indolin-1-yl)prop-2-en-1-one]: the IC50 in series [1] was ≤ 100 nM; in series [4], ≤ 100 nM; in series [5], ≤ 100 nM; in series [6] it was ≤ 100 nM; in series [7] it was 500 to 1000 nM. Moreover, the GI50 in series [2] and in series [3] was 100 to 500 nM throughout. For the same compound, the “Stability in presence of mouse liver microsomes without cofactor NADPH [% remaining after 50 min]” value in series [8] is listed as >99 % remaining after 50 min.
With `C=CC(=O)Nc1cc(-c2c(-c3ccc(OCCN(C)C)cc3)[nH]c3ncc(C(=O)OC(C)C)cc23)cc(F)c1C` [Example 182, isopropyl 3-(3-acrylamido-5-fluoro-4-methylphenyl)-2-(4-(2-(dimethylamino)ethoxy)phenyl)-1H-pyrrolo[2,3-b]pyridine-5-carboxylate], the IC50 in series [1] is ≤ 100 nM; in series [4], ≤ 100 nM; in series [5] it was ≤ 100 nM; in series [6] it was 100 to 500 nM; in series [7] it was 1000 to 100000 nM. Moreover, the GI50 in series [2] and in series [3] was 100 to 500 nM in each case. For the same compound, the “Stability in presence of mouse liver microsomes without cofactor NADPH [% remaining after 50 min]” value in series [8] is listed as >99 % remaining after 50 min.
For `C=CC(=O)Nc1cc(-c2c(-c3ccc(N4CCN(C)CC4)cc3)[nH]c3ncc(C(=O)OC4CC4)cc23)ccc1C` [Example 138, cyclopropyl 3-(3-acrylamido-4-methylphenyl)-2-(4-(4-methylpiperazin-1-yl)phenyl)-1H-pyrrolo[2,3-b]pyridine-5-carboxylate], the IC50 was ≤ 100 nM in series [1]; ≤ 100 nM in series [4]; ≤ 100 nM in series [5]; ≤ 100 nM in series [6]; 1000 to 100000 nM in series [7]. The GI50 in series [2] and in series [3] was 100 to 500 nM in each case. The “Stability in presence of mouse liver microsomes without cofactor NADPH [% remaining after 50 min]” value in series [8] is on record as >99 % remaining after 50 min.
As to `C=CC(=O)Nc1cc(-c2c(-c3ccc(N4CCN(C)CC4)cc3)[nH]c3ncc(C(=O)OCC)cc23)ccc1C` [Example 135, ethyl 3-(3-acrylamido-4-methylphenyl)-2-(4-(4-methylpiperazin-1-yl)phenyl)-1H-pyrrolo[2,3-b]pyridine-5-carboxylate], the IC50 in series [1] is ≤ 100 nM; in series [4], ≤ 100 nM; in series [5], ≤ 100 nM; in series [6], ≤ 100 nM; in series [7], 1000 to 100000 nM. The GI50 in series [2] and in series [3] was 100 to 500 nM in each case. Also, the “Stability in presence of mouse liver microsomes without cofactor NADPH [% remaining after 50 min]” value in series [8] came out at 95 % remaining after 50 min.
For `C=CC(=O)N1CCc2ccc(-c3c(-c4ccnc(N5CCN(C)CC5)c4)[nH]c4nccc(OC)c34)cc21` [Example 111, 1-(6-(4-methoxy-2-(2-(4-methylpiperazin-1-yl)pyridin-4-yl)-1H-pyrrolo[2,3-b]pyridin-3-yl)indolin-1-yl)prop-2-en-1-one], the IC50 in series [1] was ≤ 100 nM; in series [4], ≤ 100 nM; in series [5] it was ≤ 100 nM; in series [6], ≤ 100 nM; in series [7], 100 to 500 nM. Besides, the GI50 in series [2] and in series [3] was ≤ 100 nM in each case. Also, the “Stability in presence of mouse liver microsomes without cofactor NADPH [% remaining after 50 min]” value in series [8] is given as 90 % remaining after 50 min.
